According to US9499550B2 (BRISTOL-MYERS SQUIBB COMPANY, priority 2012, dated 2016):
pEC50: −log10 of the molar value. Like-named read-outs stand apart in the source and are kept apart here.

Legend:
[1] = test system: HCV genotype 1b (Con1) replicon in HUH-7 cells; assay: HCV replicon luciferase reporter assay, genotype 1b; type: cell-based; conditions: Hepatitis C virus, Huh-7, 72 h, HCV genotype 1b replicon luciferase, 3 days incubation, read-out: LE_1b (EC50, range)
In short: (§1)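 Replicon inhibition for both genotypes was measured as Renilla luciferase signal (EnduRen, 7.5 μM final, 2 h) after 3-day, 37° C exposure of replicon-bearing HUH-7 cells in 4% FCS DMEM, 0.5% DMSO. The 1b construct carries S1179I; the 1a H77 construct carries P1496L and S2204I. Twenty-point, 3-fold dilutions were fitted four-parametrically for EC50, and CC50 was taken from multiplexed Cell Titer-Blue.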

[2] = test system: HCV genotype 1a (H77 strain) replicon in HUH-7 cells; assay: HCV replicon luciferase reporter assay, genotype 1a; type: cell-based; conditions: Hepatitis C virus, Huh-7, 72 h, HCV genotype 1a replicon luciferase, 3 days incubation, read-out: LE_1a (EC50, range)
In short: as §1

| Compound | pEC50 ([1]; GETYPE1B) | pEC50 ([2]; GETYPE1A) | pEC50 [1] | pEC50 [2] |
| --- | --- | --- | --- | --- |
| COc1ccc2c(O[C@@H]3C[C@H]4C(=O)N[C@]5(C(=O)NS(=O)(=O)C6(C)CC6)C[C@H]5/C=C\CC[C@@H](C)C[C@@H](C)[C@H](NC(=O)OC(C)(C)C(F)(F)F)C(=O)N4C3)nc(-c3ccc(C(C)(C)C)cc3)cc2c1 [Compound 4079] | 6.99 to 8.32 | 6.99 to 8.32 | – | – |
| COc1ccc2c(O[C@@H]3C[C@H]4C(=O)N[C@]5(C(=O)NS(=O)(=O)C6(C)CC6)C[C@H]5/C=C\CC[C@@H](C)C[C@@H](C)[C@H](NC(=O)OC(C)(C)C)C(=O)N4C3)ncc(OC)c2c1 [Compound 4080, tert-butyl (2R,6S,7R,9R,13aS,14aR,16aS,Z)-2-(4,6-dimethoxyisoquinolin-1-yloxy)-7,9-dimethyl-14a-(1-methylcyclopropylsulfonylcarbamoyl)-5,16-dioxo-1,2,3,5,6,7,8,9,10,11,13a,14,14a,15,16,16a-hexadecahydrocyclopropa[e]pyrrolo[1,2-a][1,4]diazacyclopentadecin-6-ylcarbamate] | – | – | > 8.26 | > 8.26 |
| COc1ccc2c(O[C@@H]3C[C@H]4C(=O)N[C@]5(C(=O)NS(=O)(=O)C6(C)CC6)C[C@H]5/C=C\CC[C@@H](C)C[C@@H](C)[C@H](NC(=O)OC(C)(C)C(F)(F)F)C(=O)N4C3)ncc(OC)c2c1 [Compound 4081] | > 8.26 | > 8.26 | – | – |
| COc1cnc(O[C@@H]2C[C@H]3C(=O)N[C@]4(C(=O)NS(=O)(=O)C5(CF)CC5)C[C@H]4/C=C\CC[C@@H](C)C[C@@H](C)[C@H](NC(=O)OC(C)(C)C)C(=O)N3C2)c2cc(F)ccc12 [Compound 4082, tert-butyl (2R,6S,7R,9R,13aS,14aR,16aS,Z)-2-(7-fluoro-4-methoxyisoquinolin-1-yloxy)-14a-(1-(fluoromethyl)cyclopropylsulfonylcarbamoyl)-7,9-dimethyl-5,16-dioxo-1,2,3,5,6,7,8,9,10,11,13a,14,14a,15,16,16a-hexadecahydrocyclopropa[e]pyrrolo[1,2-a][1,4]diazacyclopentadecin-6-ylcarbamate] | – | – | > 8.26 | > 8.26 |
| COc1cnc(O[C@@H]2C[C@H]3C(=O)N[C@]4(C(=O)NS(=O)(=O)C5(CF)CC5)C[C@H]4/C=C\CC[C@@H](C)C[C@@H](C)[C@H](NC(=O)OC(C)(C)C(F)(F)F)C(=O)N3C2)c2cc(F)ccc12 [Compound 4083] | > 8.26 | > 8.26 | – | – |
| COc1cc2c(OC)cnc(O[C@@H]3C[C@H]4C(=O)N[C@]5(C(=O)NS(=O)(=O)C6(CF)CC6)C[C@H]5/C=C\CC[C@@H](C)C[C@@H](C)[C@H](NC(=O)OC(C)(C)C)C(=O)N4C3)c2cc1F [Compound 4084, tert-butyl (2R,6S,7R,9R,13aS,14aR,16aS,Z)-2-(7-fluoro-4,6-dimethoxyisoquinolin-1-yloxy)-14a-(1-(fluoromethyl)cyclopropylsulfonylcarbamoyl)-7,9-dimethyl-5,16-dioxo-1,2,3,5,6,7,8,9,10,11,13a,14,14a,15,16,16a-hexadecahydrocyclopropa[e]pyrrolo[1,2-a][1,4]diazacyclopentadecin-6-ylcarbamate] | – | – | > 8.26 | > 8.26 |
| COc1ccc2nc(O[C@@H]3C[C@H]4C(=O)N[C@]5(C(=O)NS(=O)(=O)C6(C)CC6)C[C@H]5/C=C\CC[C@@H](C)C[C@@H](C)[C@H](NC(=O)OC(C)(C)C)C(=O)N4C3)cnc2c1 [Compound 4085, tert-butyl (2R,6S,7R,9R,13aS,14aR,16aS,Z)-2-(6-methoxyquinoxalin-2-yloxy)-7,9-dimethyl-14a-(1-methylcyclopropylsulfonylcarbamoyl)-5,16-dioxo-1,2,3,5,6,7,8,9,10,11,13a,14,14a,15,16,16a-hexadecahydrocyclopropa[e]pyrrolo[1,2-a][1,4]diazacyclopentadecin-6-ylcarbamate] | – | – | > 8.26 | 6.99 to 8.32 |
| COc1ccc2ncc(O[C@@H]3C[C@H]4C(=O)N[C@]5(C(=O)NS(=O)(=O)C6(C)CC6)C[C@H]5/C=C\CC[C@@H](C)C[C@@H](C)[C@H](NC(=O)OC(C)(C)C)C(=O)N4C3)nc2c1 [Compound 4086, tert-butyl (2R,6S,7R,9R,13aS,14aR,16aS,Z)-2-(7-methoxyquinoxalin-2-yloxy)-7,9-dimethyl-14a-(1-methylcyclopropylsulfonylcarbamoyl)-5,16-dioxo-1,2,3,5,6,7,8,9,10,11,13a,14,14a,15,16,16a-hexadecahydrocyclopropa[e]pyrrolo[1,2-a][1,4]diazacyclopentadecin-6-ylcarbamate] | – | – | > 8.26 | > 8.26 |
| COc1ccc2c(O[C@@H]3C[C@H]4C(=O)N[C@]5(C(=O)NS(=O)(=O)C6(C)CC6)C[C@H]5/C=C\CC[C@@H](C)C[C@@H](C)[C@H](NC(=O)OC(C)(C)C)C(=O)N4C3)ncc(-c3ccc(OC)nc3)c2c1 [Compound 4087, tert-butyl (2R,6S,7R,9R,13aS,14aR,16aS,Z)-2-(6-methoxy-4-(6-methoxypyridin-3-yl)isoquinolin-1-yloxy)-7,9-dimethyl-14a-(1-methylcyclopropylsulfonylcarbamoyl)-5,16-dioxo-1,2,3,5,6,7,8,9,10,11,13a,14,14a,15,16,16a-hexadecahydrocyclopropa[e]pyrrolo[1,2-a][1,4]diazacyclopentadecin-6-ylcarbamate] | – | – | > 8.26 | > 8.26 |
| COc1ccc2ncc(O[C@@H]3C[C@H]4C(=O)N[C@]5(C(=O)NS(=O)(=O)C6(CF)CC6)C[C@H]5/C=C\CC[C@@H](C)C[C@@H](C)[C@H](NC(=O)OC(C)(C)C(F)(F)F)C(=O)N4C3)nc2c1 [Compound 4088] | > 8.26 | > 8.26 | – | – |
| COc1ccc2ncc(O[C@@H]3C[C@H]4C(=O)N[C@]5(C(=O)NS(=O)(=O)C6(CF)CC6)C[C@H]5/C=C\CC[C@@H](C)C[C@@H](C)[C@H](NC(=O)OC(C)(C)C)C(=O)N4C3)nc2c1 [Compound 4089, tert-butyl (2R,6S,7R,9R,13aS,14aR,16aS,Z)-14a-(1-(fluoromethyl)cyclopropylsulfonylcarbamoyl)-2-(7-methoxyquinoxalin-2-yloxy)-7,9-dimethyl-5,16-dioxo-1,2,3,5,6,7,8,9,10,11,13a,14,14a,15,16,16a-hexadecahydrocyclopropa[e]pyrrolo[1,2-a][1,4]diazacyclopentadecin-6-ylcarbamate] | – | – | > 8.26 | 6.99 to 8.32 |
| COc1cc2ccnc(O[C@@H]3C[C@H]4C(=O)N[C@]5(C(=O)NS(=O)(=O)C6(CF)CC6)C[C@H]5/C=C\CC[C@@H](C)C[C@@H](C)[C@H](NC(=O)C5(C(F)(F)F)CC5)C(=O)N4C3)c2cc1F [Compound 4090, (2R,6S,7R,9R,13aS,14aR,16aS,Z)-2-(7-fluoro-6-methoxyisoquinolin-1-yloxy)-N-(1-(fluoromethyl)cyclopropylsulfonyl)-7,9-dimethyl-5,16-dioxo-6-(1-(trifluoromethyl)cyclopropanecarboxamido)-1,2,3,5,6,7,8,9,10,11,13a,14,14a,15,16,16a-hexadecahydrocyclopropa[e]pyrrolo[1,2-a][1,4]diazacyclopentadecine-14a-carboxamide] | – | – | > 8.26 | > 8.26 |
